test system: HCC461; experiment: cell viability assay in HCC461, compound alone; format: cell-based; conditions: HCC461, HCC461; Tables 6-9; read-out: IC50 (μM) in cell viability assay in HCC461

| IC50 | Structure (SMILES) |
| --- | --- |
| 0.083 µM | CCC[C@H](NC(=O)[C@H](C)NC)C(=O)N1C[C@@H](NC(=O)c2cccc(C(=O)N[C@H]3C[C@@H](C(=O)N[C@@H]4CCCc5ccccc54)N(C(=O)[C@@H](NC(=O)[C@H](C)NC)C(C)(C)C)C3)c2)C[C@H]1C(=O)NC(C)(C)C [Compound 156] |
| > 30 µM | CN[C@@H](C)C(=O)N[C@H](C(=O)N1C[C@@H](NC(=O)c2cccc(C(=O)NCC[C@@H](NC(=O)[C@H](NC(=O)[C@@H](C)NC)C(C)C)C(=O)N[C@@H](C)C(C)C)c2)C[C@H]1C(=O)N[C@@H]1CCCc2ccccc21)C(C)(C)C [Compound 138] |
| > 30 µM | CN[C@@H](C)C(=O)N[C@@H](C(C)C)C(C)N[C@@H](CNC(=O)c1cccc(C(=O)N[C@H]2C[C@@H](C(=O)N[C@@H]3CCCc4ccccc43)N(C(=O)[C@@H](NC(=O)[C@H](C)NC)C(C)(C)C)C2)c1)C(=O)N[C@H](C)C(C)C (stereo partly shown) [Compound 136] |

same assay, conditions: HCC461, HCC461; Tables 15-18; read-out: IC50 (uM) in cell viability assay in HCC461

| Structure (SMILES) | IC50 |
| --- | --- |
| CN[C@@H](C)C(=O)N[C@H](C(=O)N1CCC[C@H]1C(=O)N[C@@H]1CCCc2ccccc21)c1ccc(OCc2ccccc2COc2ccc([C@H](NC(=O)[C@H](C)NC)C(=O)N3CCC[C@H]3C(=O)N[C@@H]3CCCc4ccccc43)cc2)cc1 [Compound P2-3] | 0.072 µM |
| CN[C@@H](C)C(=O)N[C@H](C(=O)N1CCC[C@H]1C(=O)N[C@H](CNC(=O)c1cc(N)cc(C(=O)NC[C@@H](NC(=O)[C@@H]2CCCN2C(=O)[C@@H](NC(=O)[C@H](C)NC)C(C)(C)C)c2ccccc2)c1)c1ccccc1)C(C)(C)C [Compound P4-13] | 0.089 µM |
| CN[C@@H](C)C(=O)N[C@@H](CC#CC#CC[C@H](NC(=O)[C@H](C)NC)C(=O)N1C[C@@H](NS(=O)(=O)c2ccccc2)C[C@H]1C(=O)N[C@@H]1CCCc2ccccc21)C(=O)N1C[C@@H](NS(=O)(=O)c2ccccc2)C[C@H]1C(=O)N[C@@H]1CCCc2ccccc21 [Compound P2-11] | 0.171 µM |

same assay, conditions: HCC461, HCC461 cells, compound alone; read-out: IC50 (uM) in cell viability assay in HCC461

| IC50 | Structure (SMILES) |
| --- | --- |
| 0.035 µM | CN[C@@H](C)C(=O)N[C@H](C(=O)N1C[C@@H](NC(=O)c2cc(N)cc(C(=O)N[C@H]3C[C@@H](C(=O)NCc4ccc(F)cc4)N(C(=O)[C@@H](NC(=O)[C@H](C)NC)C(C)(C)C)C3)c2)C[C@H]1C(=O)NCc1ccc(F)cc1)C(C)(C)C [Compound P3-71] |
| 0.063 µM | CN[C@@H](C)C(=O)N[C@H](C(=O)N1C[C@@H](NC(=O)c2cc(C(=O)N[C@H]3C[C@@H](C(=O)N[C@H](C)c4ccccc4)N(C(=O)[C@@H](NC(=O)[C@H](C)NC)C(C)C)C3)[nH]n2)C[C@H]1C(=O)N[C@H](C)c1ccccc1)C(C)C [Compound P3-82] |
| 0.013 µM | CN[C@@H](C)C(=O)N[C@H](C(=O)N1C[C@@H](NC(=O)c2cc(C(=O)N[C@H]3C[C@@H](C(=O)NC4CCCc5ccccc54)N(C(=O)[C@@H](NC(=O)[C@H](C)NC)C(C)(C)C)C3)ccc2Br)CC1C(=O)N[C@@H]1CCCc2ccccc21)C(C)(C)C (stereo partly shown) [Compound P3-30] |
| 0.003 µM | CN[C@@H](C)C(=O)N[C@H](C(=O)N1C[C@@H](NC(=O)CCCCC(=O)N[C@H]2C[C@@H](C(=O)N[C@@H]3CCCc4ccccc43)N(C(=O)[C@@H](NC(=O)[C@H](C)NC)C(C)(C)C)C2)C[C@H]1C(=O)N[C@@H]1CCCc2ccccc21)C(C)(C)C [Compound P3-22] |
| 0.008 µM | CN[C@@H](C)C(=O)N[C@H](C(=O)N1C[C@@H](NC(=O)Cc2ccc(CC(=O)N[C@H]3C[C@@H](C(=O)N[C@@H]4CCCc5ccccc54)N(C(=O)[C@@H](NC(=O)[C@H](C)NC)C(C)(C)C)C3)cc2)C[C@H]1C(=O)N[C@@H]1CCCc2ccccc21)C(C)(C)C [Compound P3-18] |
| 0.016 µM | CN[C@@H](C)C(=O)N[C@H](C(=O)N1C[C@@H](NC(=O)c2cc(Br)cc(C(=O)N[C@H]3C[C@@H](C(=O)NC4CCCc5ccccc54)N(C(=O)[C@@H](NC(=O)[C@H](C)NC)C(C)(C)C)C3)c2)CC1C(=O)N[C@@H]1CCCc2ccccc21)C(C)(C)C (stereo partly shown) [Compound P3-29] |
| 0.057 µM | CN[C@@H](C)C(=O)N[C@H](C(=O)N1C[C@@H](NC(=O)c2cccc(C(=O)N[C@H]3C[C@@H](C(=O)N[C@H](C)C4CCCCC4)N(C(=O)[C@@H](NC(=O)[C@H](C)NC)C(C)(C)C)C3)c2)C[C@H]1C(=O)N[C@H](C)C1CCCCC1)C(C)(C)C [Compound P3-43] |
| 0.198 µM | C#CC[C@H](NC(=O)[C@H](C)NC)C(=O)N1C[C@@H](NC(=O)c2cc(N)cc(C(=O)N[C@H]3C[C@@H](C(=O)N[C@@H]4CCCc5ccccc54)N(C(=O)[C@H](CC#C)NC(=O)[C@H](C)NC)C3)c2)C[C@H]1C(=O)N[C@@H]1CCCc2ccccc21 [Compound P3-62] |
| 0.258 µM | CN[C@@H](C)C(=O)N[C@H](C(=O)N1C[C@@H](NC(=O)C[C@H](NC(=O)OCC2c3ccccc3-c3ccccc32)C(=O)N[C@H]2C[C@@H](C(=O)N[C@@H]3CCCc4ccccc43)N(C(=O)[C@@H](NC(=O)[C@H](C)NC)C(C)(C)C)C2)C[C@H]1C(=O)N[C@@H]1CCCc2ccccc21)C(C)(C)C [Compound P3-66] |

| Structure (SMILES) | IC50 |
| --- | --- |
| CN[C@@H](C)C(=O)N[C@H](C(=O)N1C[C@@H](NC(=O)c2cc(C(=O)N[C@H]3C[C@@H](C(=O)N[C@@H]4CCCc5ccccc54)N(C(=O)[C@@H](NC(=O)[C@H](C)NC)C(C)(C)C)C3)cc(C(C)(C)C)c2)C[C@H]1C(=O)N[C@@H]1CCCc2ccccc21)C(C)(C)C [Compound P3-23] | 0.007 µM |
| CN[C@@H](C)C(=O)N[C@H](C(=O)N1C[C@@H](NC(=O)c2ccc(-c3ccc(C(=O)N[C@H]4C[C@@H](C(=O)N[C@@H]5CCCc6ccccc65)N(C(=O)[C@@H](NC(=O)[C@H](C)NC)C(C)(C)C)C4)cc3)cc2)C[C@H]1C(=O)N[C@@H]1CCCc2ccccc21)C(C)(C)C [Compound P3-37] | 0.008 µM |

same assay, conditions: HCC461; Tables 6-9; read-out: IC50 (μM) in cell viability assay in HCC461

| Structure (SMILES) | IC50 |
| --- | --- |
| C[C@H](NC(=O)OCc1ccc([N+](=O)[O-])cc1)C(=O)NC(C(=O)N1C[C@@H](NC(=O)c2cccc(C(=O)N[C@H]3C[C@@H](C(=O)N[C@@H]4CCCc5ccccc54)N(C(=O)[C@@H](NC(=O)[C@H](C)NC(=O)OCc4ccc([N+](=O)[O-])cc4)C(C)(C)C)C3)c2)CC1C(=O)N[C@@H]1CCCc2ccccc21)C(C)(C)C (stereo partly shown) [Compound 111] | > 30 µM |
| C[C@H](NC(=O)OCc1ccc([N+](=O)[O-])cc1)C(=O)NC(C(=O)N1C[C@@H](NC(=O)c2cc(C(=O)N[C@H]3C[C@@H](C(=O)N[C@@H]4CCCc5ccccc54)N(C(=O)[C@@H](NC(=O)[C@H](C)NC(=O)OCc4ccc([N+](=O)[O-])cc4)C(C)(C)C)C3)cc(S(=O)(=O)O)c2)CC1C(=O)N[C@@H]1CCCc2ccccc21)C(C)(C)C (stereo partly shown) [Compound 112] | > 30 µM |
| CN[C@@H](C)C(=O)N[C@@H](CCC(=O)N[C@H]1CC(C(=O)N[C@@H]2CCc3ccccc3C2)N(C(=O)[C@@H](NC(=O)[C@H](C)NC)C(C)(C)C)C1)C(=O)N[C@H](C(=O)N[C@@H](C)C(C)C)C(C)(C)C (stereo partly shown) [Compound 163] | > 30 µM |

same assay, conditions: HCC461; Tables 15-18; read-out: IC50 (uM) in cell viability assay in HCC461

| Structure (SMILES) | IC50 |
| --- | --- |
| CN[C@@H](C)C(=O)N[C@@H](CCCCCC[C@H](NC(=O)[C@H](C)NC)C(=O)N1C[C@@H](NC(=O)c2ccccc2)C[C@H]1C(=O)N[C@@H]1CCCc2ccccc21)C(=O)N1C[C@@H](NC(=O)c2ccccc2)C[C@H]1C(=O)N[C@@H]1CCCc2ccccc21 [Compound P2-13] | 0.168 µM |

same assay, conditions: HCC461 cells, compound alone; read-out: IC50 (uM) in cell viability assay in HCC461

| IC50 | Structure (SMILES) |
| --- | --- |
| 0.311 µM | CN[C@@H](C)C(=O)N[C@H](C(=O)N1C[C@@H](NC(=O)c2cccc(C(=O)N[C@H]3C[C@@H](C(=O)NC4CCCC5CCCCC54)N(C(=O)[C@@H](NC(=O)[C@H](C)NC)C(C)(C)C)C3)c2)C[C@H]1C(=O)NC1CCCC2CCCCC21)C(C)(C)C (stereo partly shown) [Compound P3-60] |

Reference: patent publication US20130344026A1, “Dimeric Smac Mimetics” (priority 2009, published 2013)
